Laboratory results taken from article PMC11374953, “Heteroaryl derivatives of suvorexant as OX1R selective PET ligand candidates: Cu-mediated ^18F-fluorination of boroxines, in vitro and initial in vivo evaluation” (EJNMMI Research, 2024).
Values joined by “and” are separate entries in the source; they are usually repeats but may differ in a detail not shown here. Equal values may be shown once. “Also recorded” adds a separate entry of the source.

Assays:
human OX1R = biological target: T1, human OX1R (Homo sapiens, UniProt O43613); experiment: Radioligand displacement binding, human OX1R (HEK293T membranes); conditions: for OX1R selectivity Ki(hOX2R)/Ki(hOX1R): Ki for OX2R divided by Ki for OX1R; for Ki: mean ± SEM, at least three experiments in triplicate, HEK293T membranes, radioligand [^3H]SB974042, read-out: Ki values (nM ± SEM) hOX1R
T1 construct: host or cells: HEK293T
T1 sequence (O43613 1-425): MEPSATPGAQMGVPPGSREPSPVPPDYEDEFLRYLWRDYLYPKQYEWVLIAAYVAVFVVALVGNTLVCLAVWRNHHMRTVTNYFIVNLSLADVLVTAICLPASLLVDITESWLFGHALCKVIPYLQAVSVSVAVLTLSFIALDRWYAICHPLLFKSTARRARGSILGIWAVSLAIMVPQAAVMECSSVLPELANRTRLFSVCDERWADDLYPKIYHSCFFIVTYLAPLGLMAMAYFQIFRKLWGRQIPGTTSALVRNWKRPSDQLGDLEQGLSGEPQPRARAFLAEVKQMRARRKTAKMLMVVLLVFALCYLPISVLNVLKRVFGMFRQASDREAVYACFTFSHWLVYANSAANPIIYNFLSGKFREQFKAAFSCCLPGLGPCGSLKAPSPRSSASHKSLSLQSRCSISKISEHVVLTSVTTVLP
Experimental: (§1) In comparison with the lead JH112, receptor binding affinities of the test compounds 1a–f have been determined by radioligand displacement studies, as described previously, applying membranes of HEK293T cells transiently expressing the human OX1R or OX2R (Table 1).
Binding affinities to the human orexin receptor subtypes OX1R and OX2R were determined as reported. Membranes were prepared from HEK293T cells transiently transfected with the cDNA for the receptor (OX1R: human HCRTR1 from cDNA Resource Center, Bloomsburg University, Bloomsberg, PA; OX2R: human HCRTR2 from Genscript, Piscataway, NJ). […] Competition binding experiments were conducted in binding buffer (50 mM Tris, 5 mM MgCl2, 0.1 mM EDTA, 5 µg/mL bacitracin and 5 µg/mL soybean trypsin inhibitor at pH 7.4) at final protein concentrations of 4 µg/well (OX1R) and 3 µg/well ([…]) or the OX2R radioligand [^3H]EMPA (specific activity: 84 Ci/mmol) both at a final concentration of 0.7 nM (both purchased from Novandi, Södertälje, Sweden) and varying concentrations of the competing test compounds. Radioactivity was separated by filtration on GF/B glass fiber mats and counted with a scintillation counter (Microbeta from PerkinElmer, Rodgau, Germany). […] The protein concentration was determined applying the method of Lowry. Competition curves were analyzed by nonlinear regression using the algorithms implemented in PRISM 10.2 (GraphPad Software, San Diego, CA) to get IC50 values, which were subsequently transformed into the Ki values employing the equation of Cheng and Prusoff.

human OX2R = biological target: T2, human OX2R (Homo sapiens, UniProt O43614); experiment: Radioligand displacement binding, human OX2R (HEK293T membranes); conditions: mean ± SEM, at least three experiments in triplicate; HEK293T homogenates, radioligand [^3H]EMPA; read-out: Ki values (nM ± SEM) hOX2R
T2 construct: host or cells: HEK293T
T2 sequence (O43614 1-444): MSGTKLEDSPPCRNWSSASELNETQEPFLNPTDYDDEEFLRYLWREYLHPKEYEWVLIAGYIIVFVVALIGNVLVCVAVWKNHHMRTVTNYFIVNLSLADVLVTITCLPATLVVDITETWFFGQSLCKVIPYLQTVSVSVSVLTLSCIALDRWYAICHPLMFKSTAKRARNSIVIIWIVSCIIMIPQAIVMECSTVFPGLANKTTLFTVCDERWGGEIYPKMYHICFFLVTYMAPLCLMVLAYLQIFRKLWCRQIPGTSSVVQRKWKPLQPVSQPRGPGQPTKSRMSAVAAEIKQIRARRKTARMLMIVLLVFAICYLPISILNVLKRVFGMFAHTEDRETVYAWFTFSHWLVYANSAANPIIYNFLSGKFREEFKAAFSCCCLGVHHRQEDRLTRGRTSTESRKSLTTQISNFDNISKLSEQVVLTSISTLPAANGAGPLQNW
Experimental: as §1
Binding affinities to the human orexin receptor subtypes OX1R and OX2R were determined as reported. Membranes were prepared from HEK293T cells transiently transfected with the cDNA for the receptor (OX1R: human HCRTR1 from cDNA Resource Center, Bloomsburg University, Bloomsberg, PA; OX2R: human HCRTR2 from Genscript, Piscataway, NJ). […] Competition binding experiments were conducted in binding buffer (50 mM Tris, 5 mM MgCl2, 0.1 mM EDTA, 5 µg/mL bacitracin and 5 µg/mL soybean trypsin inhibitor at pH 7.4) at final protein concentrations of 4 µg/well (OX1R) and 3 µg/well (OX2R) when incubating the OX1R specific radioligand [^3H]SB674042 (specific activity: 43 Ci/mmol) or the OX2R radioligand [^3H]EMPA (specific activity: 84 Ci/mmol) both at a final concentration of 0.7 nM (both purchased from Novandi, Södertälje, Sweden) and varying concentrations of the competing test compounds. Radioactivity was separated by filtration on GF/B glass fiber mats and counted with a scintillation counter (Microbeta from PerkinElmer, Rodgau, Germany). Non-specific binding was determined with 10 µM of SB674042 or EMPA. The protein concentration was determined applying the method of Lowry. Competition curves were analyzed by nonlinear regression using the algorithms implemented in PRISM 10.2 (GraphPad Software, San Diego, CA) to get IC50 values, which were subsequently transformed into the Ki values employing the equation of Cheng and Prusoff.

P-gp = P-gp (Homo sapiens, UniProt P08183); experiment: Basolateral-to-apical transport in Caco-2 monolayers with and without the P-gp inhibitor zosuquidar; conditions: for effect of P-gp inhibitor zosuquidar (ZSQ) on basolateral-to-apical transport / passive permeability (transcellular passive diffusion): Caco-2 monolayers, 4 h; for effect of P-gp inhibitor zosuquidar (ZSQ) on basolateral-to-apical transport: 5 µM compound, 1 µM ZSQ, n = 8; for passive permeability (transcellular passive diffusion): 5 µM, compared with digoxin; for P-gp substrate assessment: Caco-2 monolayer model with zosuquidar
Chain of P-gp (P08183 whole entry, the tested form may be a part): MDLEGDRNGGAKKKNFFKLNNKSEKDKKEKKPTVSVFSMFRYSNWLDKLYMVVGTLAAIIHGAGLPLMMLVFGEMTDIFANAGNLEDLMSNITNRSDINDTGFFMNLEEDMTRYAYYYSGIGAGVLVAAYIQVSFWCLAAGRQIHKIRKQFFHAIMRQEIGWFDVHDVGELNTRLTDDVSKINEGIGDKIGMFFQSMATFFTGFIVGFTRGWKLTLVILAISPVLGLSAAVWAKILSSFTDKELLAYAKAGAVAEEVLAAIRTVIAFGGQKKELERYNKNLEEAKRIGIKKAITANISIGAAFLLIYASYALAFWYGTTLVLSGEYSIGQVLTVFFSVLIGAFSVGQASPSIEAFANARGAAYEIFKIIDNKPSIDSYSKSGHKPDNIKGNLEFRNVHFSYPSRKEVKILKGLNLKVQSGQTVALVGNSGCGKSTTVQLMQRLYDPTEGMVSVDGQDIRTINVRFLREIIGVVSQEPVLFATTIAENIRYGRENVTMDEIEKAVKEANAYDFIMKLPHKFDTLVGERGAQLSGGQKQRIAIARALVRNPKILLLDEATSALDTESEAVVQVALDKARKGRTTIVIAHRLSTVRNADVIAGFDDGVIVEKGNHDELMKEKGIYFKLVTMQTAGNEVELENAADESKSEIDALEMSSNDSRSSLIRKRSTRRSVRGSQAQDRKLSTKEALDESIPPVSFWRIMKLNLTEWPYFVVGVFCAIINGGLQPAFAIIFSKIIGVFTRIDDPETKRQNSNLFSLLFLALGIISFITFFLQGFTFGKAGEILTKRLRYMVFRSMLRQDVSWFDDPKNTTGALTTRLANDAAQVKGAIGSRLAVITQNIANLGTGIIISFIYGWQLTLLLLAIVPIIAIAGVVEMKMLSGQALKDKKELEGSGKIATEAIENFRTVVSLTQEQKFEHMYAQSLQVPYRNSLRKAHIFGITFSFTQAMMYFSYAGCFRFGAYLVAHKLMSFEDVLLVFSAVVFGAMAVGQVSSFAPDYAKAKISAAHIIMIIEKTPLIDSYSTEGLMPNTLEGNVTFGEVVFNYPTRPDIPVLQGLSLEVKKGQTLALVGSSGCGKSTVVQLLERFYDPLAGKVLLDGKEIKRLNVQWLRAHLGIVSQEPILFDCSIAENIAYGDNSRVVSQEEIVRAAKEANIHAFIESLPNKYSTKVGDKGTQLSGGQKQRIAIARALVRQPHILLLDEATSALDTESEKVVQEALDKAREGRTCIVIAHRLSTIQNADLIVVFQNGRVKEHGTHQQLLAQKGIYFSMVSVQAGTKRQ
Experimental: Amounts being present after 4 h in the apical compartment are shown in % of the amount administered to the basal side.
In order to characterize compounds as substrates of P-gp, monolayers of Caco-2 cells were used in line with previous studies [53]. In brief, transport from the basolateral to apical compartment was determined after 4 h in the absence or presence of the P-gp inhibitor zosuquidar (Biomol GmbH, Hamburg, Germany). […] Zosuquidar was administered in a concentration of 1 µM to the basal and apical compartments. Results are expressed in % of the amount administered to the basolateral compartment at the beginning of the experiment. The P-gp substrate digoxin (obtained in tritium-labeled form from ARC, St. Louis, USA and in unlabeled form from Merck KGaA, Darmstadt, Germany) was used as positive control. Monolayer integrity was checked routinely using tritium-labeled inulin (obtained from ARC, St. Louis, USA). […] LC–MS analyses were performed using an ultra-high-performance liquid chromatography (UPLC) (Ultimate 3000, Thermo Fisher Scientific) coupled to a high-resolution mass spectrometer (QExactive Orbitrap Focus, Thermo Fisher Scientific). The analytical column was an Acquity UPLC BEH C18, 1.7 µm, 2.1 × 100 mm column (Waters GmbH) and 80% methanol with 0.1% formic acid was used as mobile phase during an isocratic elution for 5 min at a flow rate of 0.35 mL/min. For sample preparation, 200 µL cell culture supernatant were mixed with 600 µL methanol including 50 ng/mL clopidogrel-d3 as an internal standard. Samples were centrifuged, the solvent of 600 µL supernatant was evaporated to dryness and 100 µL mobile phase was used for reconstitution. The injection volume was 5 µL. All experiments were performed with eight biological replicates. Unpaired t-test was used for analyzing differences with p-values < 0.05 considered significant.

[1] = Partition coefficient logD7.4 (n-octanol/PBS); assay type: physicochemical; conditions: n-octanol/PBS pH 7.4, mean ± SD
Experimental: Phosphate-buffered saline (PBS, 480 µL, pH 7.4) and n-octanol (500 µL) were placed in an Eppendorf tube. The radioligand (30–50 kBq, [^18F]1c or [^18F]1f) in PBS (20 µL) was added to the tube, vortexed for 1 min and centrifuged (20,000g, 1 min). Three samples (100 µL) from each layer were collected and measured by a γ-counter (Wallac Wizard 1470, PerkinElmer, USA). After the average cpm values from the triplicate measurements of each layer were calculated, the logD7.4 was determined as the logarithm of the ratio of n-octanol (mean cpm) to PBS (mean cpm). The mean logD7.4 value ± standard deviation was determined by at least three independent experiments each performed in triplicates.

[2] = Plasma protein binding (MicroSpin G-50 columns); assay type: in vitro ADME; conditions: human plasma, 37 °C, read-out: plasma protein binding (PPB) (converted)
Experimental: The radiotracer (100–200 kBq, [^18F]1c or [^18F]1f) in PBS (2 µL) was incubated with human plasma (100 µL) at 37 °C for 10 min. After preconditioning of the microcolumns according to the instructions of the manufacturer (illustra MicroSpin G-50 columns from GE Healthcare), a sample (40 µL) of was applied to the resin. The microspin tubes were centrifuged (2000g, 2 min) and both, eluate and resin were measured by a γ-counter (Wallac Wizard 1470, PerkinElmer, USA). The PPB was calculated as percentage of bound ligand (cpm of resin) from the total amount of radioactivity (sum of cpm of resin and eluate). Samples from incubation of the radiotracer in saline instead of plasma served as negative control. The mean PPB value was determined from at least two independent experiments each performed in triplicate.

[3] = Radioligand stability in human plasma and human serum; assay type: in vitro ADME; conditions: 37 °C, up to 120 min, radio-HPLC
Experimental: (§2) The radioligand (1–2 MBq, [^18F]1c or [^18F]1f) in PBS (20 µL) was incubated with human serum, human plasma or rat plasma (400 µL) at 37 °C. Samples (50 µL) were taken at 5, 10, 15, 30, 60 and 120 min, mixed with aqueous TFA (10%, 50 µL) and centrifuged (20,000g, 2 min). The supernatant (20 µL) was analyzed by radio-HPLC.

[4] = Radioligand stability in rat plasma; assay type: in vitro ADME; conditions: 37 °C, up to 120 min, radio-HPLC
Experimental: as §2

[5] = Dynamic small animal PET imaging of the rat brain; assay type: in vivo
Experimental: Small animal PET experiments in rats were performed to allow for an initial comparison in single animals that were injected with [^18F]1c or [^18F[1f alone, after preinjection of suvorexant (1 mg/kg), and after pretreatment with cyclosporine A (25 mg/kg) (Fig. 3). […] Therefore, to elucidate the P-gp-mediated transport of the compounds, specific experiments were performed.
Fig. 3 Time-activity curves and horizontal PET slices of the rat brain after injection of [^18F]1c (A, C) and [^18F]1f (B, D). Single animals were injected with the tracer alone (“control”, blue) compared to animals preinjected with suvorexant (1 mg/kg, 15 min prior to tracer injection, each n = 1; “blocking”, red) or cyclosporine A (25 mg/kg, 30 min prior to tracer injection, each n = 1; green)
Ten- to 13-week-old female CD Sprague–Dawley rats (250–300 g, Charles River) were housed with free access to standard rat chow (Purina) and water at all times. Dynamic small animal PET scans were performed on an Inveon™ microPET scanner (Siemens Healthineers AG, Erlangen, Germany). All rats were continuously anesthetized using isoflurane (2–3% in oxygen, 0.8 L/min) and placed on a heating pad (37 °C) during the PET scan. Rats were injected intravenously in the tail vein with the radioligand in saline (5–15 MBq in 200–300 µL, [^18F]1c or [^18F]1f). Pretreatment with suvorexant (1 mg/kg, 15 min prior to tracer injection) or cyclosporine A (25 mg/kg, […] to tracer injection) was done intravenously. Dynamic PET scans were acquired from 0 to 60 min p.i. and consisted of 23 frames with increasing duration (12 × 10 s, 3 × 1 min, 5 × 5 min and 3 × 10 min). Subsequently, an attenuation scan with a rotating Co-57 point source was performed. The obtained dynamic emission images were subjected to an attenuation and decay correction. After the iterative maximum a posteriori (MAP) estimation for the image reconstruction, regions of interest (ROIs) were drawn for the whole brain. Computational processing of the PET scans was done with the software PMOD (PMOD Technologies LLC). The data obtained were finally converted into values expressed as percent of injected dose per gram (%ID/g).

| Structure (SMILES) | OX1R selectivity Ki(hOX2R)/Ki(hOX1R) (human OX1R) | Ki (human OX1R) [nM] | Ki (human OX2R) | effect of P-gp inhibitor zosuquidar (ZSQ) on basolateral-to-apical transport (P-gp) | passive permeability (transcellular passive diffusion) (P-gp) | other results |
| --- | --- | --- | --- | --- | --- | --- |
| Cc1ccc(-n2nccn2)c(C(=O)N2CCCN(c3nc4cc(F)ccc4o3)CC2)c1 [1a] | 1.0 | 2.5 ± 0.62 | 2.5 ± 0.36 nM |  |  |  |
| Cc1ccc(-n2nccn2)c(C(=O)N2CCCN(c3nc4cc(F)ccc4s3)CC2)c1 [1b] | 1.3 | 1.9 ± 0.42 | 2.4 ± 0.49 nM | did not significantly reduce | greater than that of digoxin |  |
| Cc1ccc(-n2nccn2)c(C(=O)N2CCCN(c3nc4ccc(F)cc4s3)CC2)c1 [1c] | 1.2 | 0.99 ± 0.25 | 1.2 ± 0.2 nM | only moderately inhibited; also recorded: very modest, yet significant, effect | greater than that of digoxin | P-gp substrate assessment (P-gp): not efficient P-gp substrates |
| Cc1ccc(-n2nccn2)c(C(=O)N2CCCN(c3cnc4cc(F)ccc4n3)CC2)c1 [1d] | 0.7 | 1.2 ± 0.4 | 0.8 nM and 0.83 nM | did not significantly reduce | greater than that of digoxin |  |
| CC[C@H](C)[C@H]1CN(c2nc3cc(F)ccc3o2)CCCN1C(=O)c1cc(C)ccc1-n1nccn1 [1e] | 77 | 1.2 ± 0.28 | 92 ± 14 nM |  |  | decrease of OX1R affinity compared to JH112 (factor) (human OX1R; fluorine for chlorine replacement): 1.6 |
| CC[C@H](C)[C@H]1CN(c2nc3ccc(F)cc3s2)CCCN1C(=O)c1cc(C)ccc1-n1nccn1 [1f] | 77 | 0.69 ± 0.26 | 53 ± 7.8 nM | no effect; also recorded: did not significantly reduce | similarly high as with digoxin | P-gp substrate assessment (P-gp): not efficient P-gp substrates |
| Cc1ccc(-n2nccn2)c(C(=O)N2CCCN(c3nc4ccc([18F])cc4s3)CC2)c1 [[^18F]1c, [4-(6-[^18F]fluorobenzo[d]thiazol-2-yl)-1,4-diazepan-1-yl][5-methyl-2-(2H-1,2,3-triazol-2-yl)phenyl]methanone] |  |  |  |  |  | logD [1]: 2.28; fraction unbound at 10 min [2]: 0.34; stability in human plasma [3]: stable over 120 min; stability in human serum [3]: stable over 120 min; stability in rat plasma [4]: stable over 120 min; brain uptake after pretreatment with cyclosporine A ([5]; cyclosporine A 25 mg/kg i.v. prior to tracer, n = 1): 0.25 %ID/g; brain uptake after preinjection of suvorexant ([5]; suvorexant 1 mg/kg i.v. 15 min prior to tracer, n = 1): 0.25 %ID/g; time of maximum brain uptake p.i. ([5]; tracer alone i.v.): about 40 s; maximum brain uptake ([5]; tracer alone i.v., whole brain, n = 1): 0.17 %ID/g |
